Test results from US20060166867A1, “Novel conjugates of polysaccharides and uses thereof” (priority 2003, published 2006).
Values joined by “and” are separate entries in the source; they are usually repeats but may differ in a detail not shown here. Identical values can stand only once.

Key:
[1] = system: K. pneumoniae-ESBL positive; settings: Gram negative clinical isolate
[2] = system: Enterococcus faecalis (clinical isolate); settings: Gram positive clinical isolate
Serratia marcescens = settings: Gram negative clinical isolate
Enterobacter cloacae = settings: Gram negative clinical isolate
S. aureus MRSA [3] = settings: Gram positive clinical isolate
[4] = system: Klebsiella pneumoniae ATCC 13883; settings: Gram negative reference strain
CXCR4 = molecular target: T1, CXCR4 (Homo sapiens, UniProt P61073); experiment: Competition with 12G5 mAb binding to CXCR4 on MT2 cells (flow cytometry)
T1 construct: incubated at 4° C. with anti-CXCR4 mAb, 12G5, conjugated to phycoerithrine (PE); endogenous in cells; host or cells: MT2 cells
Procedure, shortened: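 MT2 cells (0.5×10^6) were incubated for 30 min at 4 °C with PE-conjugated 12G5 anti-CXCR4 mAb, alone or with varying concentrations of pAACs or arginine peptides, in ice-cold PBS/0.1% azide. Cells were then fixed in 1% paraformaldehyde and analysed by flow cytometry (10,000 events), with an isotype control defining non-specific fluorescence.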

[5] = system: P. aeruginosa-gentamicin^s, meropenem^s; experiment: microbe, parasite or virus in culture; settings: Pseudomonas aeruginosa, read-out: Minimum Inhibitory Concentration
E. coli U23773^r = experiment: microbe, parasite or virus in culture; settings: Escherichia coli, read-out: Minimum Inhibitory Concentration
S. aureus MRSA [6] = experiment: microbe, parasite or virus in culture; settings: Staphylococcus aureus, read-out: Minimum Inhibitory Concentration
[7] = system: Klebsiella pneumoniae ATCC 13883; experiment: microbe, parasite or virus in culture; settings: ATCC13883, read-out: Minimum Inhibitory Concentration
[8] = system: Enterococcus faecalis ATCC 29212; experiment: microbe, parasite or virus in culture; settings: ATCC29212, read-out: Minimum Inhibitory Concentration
[9] = system: K. pneumoniae-ESBL negative; experiment: microbe, parasite or virus in culture; settings: Klebsiella pneumoniae, read-out: Minimum Inhibitory Concentration
[10] = system: Enterobacter cloacae W25161; experiment: microbe, parasite or virus in culture; settings: W25161, read-out: Minimum Inhibitory Concentration
S. epidermidis MRSE = experiment: microbe, parasite or virus in culture; settings: Staphylococcus epidermidis, read-out: Minimum Inhibitory Concentration
[11] = system: Acinetobacter baumannii ATCC 19606; experiment: microbe, parasite or virus in culture; settings: ATCC19606, read-out: Minimum Inhibitory Concentration
[12] = system: Proteus mirabilis ATCC 7002; experiment: microbe, parasite or virus in culture; settings: ATCC7002, read-out: Minimum Inhibitory Concentration
[13] = system: Pseudomonas aeruginosa ATCC 27853; experiment: microbe, parasite or virus in culture; settings: ATCC27853, read-out: Minimum Inhibitory Concentration
[14] = system: A. baumannii-amikacin^s, meropenem^s; experiment: microbe, parasite or virus in culture; settings: Acinetobacter baumannii, read-out: Minimum Inhibitory Concentration
K. pneumoniae B2511 = experiment: MIC, broth microdilution; type: cell-based; settings: Klebsiella pneumoniae, Gram negative clinical isolate, read-out: Minimum Inhibitory Concentration
[15] = system: Staphylococcus aureus ATCC 24213; experiment: microbe, parasite or virus in culture; settings: ATCC24213, read-out: Minimum Inhibitory Concentration
[16] = system: Escherichia coli ATCC 25922; experiment: microbe, parasite or virus in culture; settings: ATCC25922, read-out: Minimum Inhibitory Concentration
Strep. Pyogenes (gr. A) = experiment: MIC, broth microdilution; type: cell-based; settings: Streptococcus pyogenes; Gram positive clinical isolate; read-out: Minimum Inhibitory Concentration
[17] = system: K. pneumoniae-ESBL positive; experiment: microbe, parasite or virus in culture; settings: Klebsiella pneumoniae, read-out: Minimum Inhibitory Concentration
[18] = system: Enterococcus faecalis (clinical isolate); experiment: microbe, parasite or virus in culture; settings: read-out: Minimum Inhibitory Concentration
[19] = system: Moraxella catarrhalis ATCC 25238 (Branhamella); experiment: microbe, parasite or virus in culture; settings: ATCC25238, read-out: Minimum Inhibitory Concentration

T1 sequence (P61073 whole entry): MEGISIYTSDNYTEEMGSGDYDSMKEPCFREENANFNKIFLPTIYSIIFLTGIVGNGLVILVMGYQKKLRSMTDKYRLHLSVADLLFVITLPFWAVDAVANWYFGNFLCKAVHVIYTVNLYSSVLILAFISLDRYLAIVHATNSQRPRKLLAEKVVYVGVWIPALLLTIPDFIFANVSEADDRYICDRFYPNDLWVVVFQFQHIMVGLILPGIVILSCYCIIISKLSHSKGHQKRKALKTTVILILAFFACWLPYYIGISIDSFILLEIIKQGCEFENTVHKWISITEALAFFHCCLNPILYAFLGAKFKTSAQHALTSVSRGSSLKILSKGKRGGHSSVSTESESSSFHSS

How did the “Minimum Inhibitory Concentration” value [1] turn out when CC(=O)N[C@H](CCCNC(=N)N)C(=O)N[C@H](CCCNC(=N)N)C(=O)N[C@H](CCCNC(=N)N)C(=O)N[C@H](CCCNC(=N)N)C(=O)N[C@H](CCCNC(=N)N)C(=O)N[C@H](CCCNC(=N)N)C(=O)N[C@H](CCCNC(=N)N)C(=O)N[C@H](CCCNC(=N)N)C(=O)N[C@H](CCCNC(=N)N)C(=O)O [Compound 12, D-Arg-9-mer-NHAc] was run?
The value was 48.0 mg/liter and 23.93 μM.

And the “Minimum Inhibitory Concentration” value [2]?
The value was 128.0 mg/liter and 63.82 μM.

And the “Minimum Inhibitory Concentration” value (Serratia marcescens)?
Its value is > 256.0 mg/liter and 127.64 μM.

And the “Minimum Inhibitory Concentration” value (Enterobacter cloacae)?
Its value is 128.0 mg/liter and 63.82 μM.

And the “Minimum Inhibitory Concentration” value (S. aureus MRSA [3])?
The value was > 128.0 mg/liter and 63.82 μM.

And the “Minimum Inhibitory Concentration” value [4]?
Its value is 96.0 mg/liter and 47.86 μM.

What about the inhibition at 2 µM (CXCR4; 2 μM, read-out: % Inhibition of 12G5 mAb binding to CXCR4) of the same compound?
The inhibition at 2 µM was 81.3%.

What about the inhibition at 10 µM (CXCR4; 10 μM, read-out: % Inhibition of 12G5 mAb binding to CXCR4) of the same compound?
Its inhibition at 10 µM is 99.6%.

NCC1OC(OC2C(CO)OC(OC3C(O)C(N)CC(N)C3OC3OC(CN)C(O)C(O)C3N)C2O)C(N)C(O)C1O (centres unmarked) [Neomycin] was tested. Which MIC [5] did it give?
The MIC was 16 µg/mL and 17.6 µM.

What about the MIC (E. coli U23773^r) of the same compound?
Its MIC is 141 µM and 128 µg/mL.

And the MIC (S. aureus MRSA [6])?
Its MIC is 1 µg/mL and 1.1 µM.

What about the MIC [7] of the same compound?
Its MIC is 0.7 µg/mL and 0.77 µM.

What about the MIC [8] of the same compound?
Its MIC is 128 µg/mL and 141 µM.

What about the MIC [9] of the same compound?
Its MIC is 0.7 µg/mL and 0.77 µM.

And the MIC [10]?
The MIC was 3 µg/mL and 3.3 µM.

And the MIC (S. epidermidis MRSE)?
The MIC was 0.5 µg/mL and 0.55 µM.

And the MIC [11]?
Its MIC is 6 µg/mL and 6.6 µM.

What about the MIC [12] of the same compound?
The MIC was 1.5 µg/mL and 1.65 µM.

And the MIC [13]?
Its MIC is 128 µg/mL and 141 µM.

What about the MIC [14] of the same compound?
Its MIC is 3 µg/mL and 3.3 µM.

What about the MIC (K. pneumoniae B2511) of the same compound?
The MIC was 1.5 µg/mL and 1.65 µM.

What about the MIC [15] of the same compound?
The MIC was 1.5 µg/mL and 1.65 µM.

And the MIC [16]?
The MIC was 1 µg/mL and 1.1 µM.

What about the MIC (Strep. Pyogenes (gr. A)) of the same compound?
Its MIC is 16 µg/mL and 17.6 µM.

And the MIC [17]?
The MIC was 1.5 µg/mL and 1.65 µM.

What about the MIC [18] of the same compound?
The MIC was 128 µg/mL and 141 µM.

What about the MIC [19] of the same compound?
Its MIC is 0.25 µg/mL and 0.28 µM.

D-Arg-9-mer-neomycin [Compound 14] was tested. Which “Minimum Inhibitory Concentration” value [1] did it give?
Its value is 32.0 mg/liter and 11.02 μM.

What about the “Minimum Inhibitory Concentration” value [2] of the same compound?
Its value is 64.0 mg/liter and 22.05 μM.

And the “Minimum Inhibitory Concentration” value (Serratia marcescens)?
Its value is 64.0 mg/liter and 22.05 μM.

And the “Minimum Inhibitory Concentration” value (Enterobacter cloacae)?
Its value is 64.0 mg/liter and 22.05 μM.

And the “Minimum Inhibitory Concentration” value (S. aureus MRSA [3])?
The value was 32.0 mg/liter and 11.02 μM.

And the “Minimum Inhibitory Concentration” value [4]?
Its value is 12.0 mg/liter and 4.14 μM.

And the “% Inhibition of 12G5 mAb binding to CXCR4” value (CXCR4; 2 μM)?
The value was 95.3%.

And the “% Inhibition of 12G5 mAb binding to CXCR4” value (CXCR4; 10 μM)?
The value was 100%.
